Results reported in patent US4833134A, “Cephem compounds” (Takeda Chemical Industries, Ltd., priority 1986, dated 1989).
Where a name gives a salt, the structure may show the parent alone.

Columns and labels:
[1] = tested on: Staphylococcus aureus 1840; assay: MIC (minimum inhibitory concentration), agar dilution method; assay type: cell-based; details: trypticase soy agar, ca. 10^8 CFU/ml, 37° C., 18 hours
Experimental: (§1) The MIC value of the test compound was determined by agar dilution method. More specifically, 1.0 ml of an aqueous solution of the test compound diluted serially was poured into a petri dish, to which were added 9.0 ml of trypticase soy agar, followed by mixing. On the mixed agar plate was spread a suspension of the test microorganism (ca. 10^8 CFU/ml), which was incubated at 37° C. for 18 hours. The lowest concentration of the test compound completely inhibiting the growth of the test microorganism was expressed by MIC (minimum inhibitory concentration).
(1) Staphylococcus aureus 1840

[2] = tested on: Escherichia coli T7; assay: as above; assay type: cell-based; details: trypticase soy agar, ca. 10^8 CFU/ml, 37° C., 18 hours
Experimental: as §1

## CCON=C(C(=O)NC1C(=O)N2C(C(=O)[O-])=C(C[n+]3ccc(SCCCN)cc3)CSC12)c1csc(N)n1 (stereo not drawn) [Example 2, 7β-[2-(2-aminothiazol-4-yl)-(Z)-2-ethoxyiminoacetamido]-3-{[4-(3-aminopropylthio)-1-pyridinium]methyl}-3-cephem-4-carboxylate hydrochloride]
[1]
  MIC: 0.78 µg/mL
[2]
  MIC: 0.2 µg/mL
